Measured values taken from patent US20190359609A1, “BICYCLIC OGA INHIBITOR COMPOUNDS” (Janssen Pharmaceutica NV, priority 2016, published 2019).
Where two headings read alike, the source gives them in different places.

What was measured:
OGA = target: T1, OGA (Homo sapiens, UniProt O60502); experiment: OGA cellular assay: ICC detection of O-GlcNAcylated proteins in HEK293 cells inducible for P301L mutant human Tau; assay type: cell-based; details: 6 hours incubation; for EC50: read-out: Cellular hOGA, pEC50 (converted)
T1 construct: endogenous in cells; host or cells: HEK293 cells inducible for P301L mutant human Tau (2N4R)
T1 sequence (O60502 1-916): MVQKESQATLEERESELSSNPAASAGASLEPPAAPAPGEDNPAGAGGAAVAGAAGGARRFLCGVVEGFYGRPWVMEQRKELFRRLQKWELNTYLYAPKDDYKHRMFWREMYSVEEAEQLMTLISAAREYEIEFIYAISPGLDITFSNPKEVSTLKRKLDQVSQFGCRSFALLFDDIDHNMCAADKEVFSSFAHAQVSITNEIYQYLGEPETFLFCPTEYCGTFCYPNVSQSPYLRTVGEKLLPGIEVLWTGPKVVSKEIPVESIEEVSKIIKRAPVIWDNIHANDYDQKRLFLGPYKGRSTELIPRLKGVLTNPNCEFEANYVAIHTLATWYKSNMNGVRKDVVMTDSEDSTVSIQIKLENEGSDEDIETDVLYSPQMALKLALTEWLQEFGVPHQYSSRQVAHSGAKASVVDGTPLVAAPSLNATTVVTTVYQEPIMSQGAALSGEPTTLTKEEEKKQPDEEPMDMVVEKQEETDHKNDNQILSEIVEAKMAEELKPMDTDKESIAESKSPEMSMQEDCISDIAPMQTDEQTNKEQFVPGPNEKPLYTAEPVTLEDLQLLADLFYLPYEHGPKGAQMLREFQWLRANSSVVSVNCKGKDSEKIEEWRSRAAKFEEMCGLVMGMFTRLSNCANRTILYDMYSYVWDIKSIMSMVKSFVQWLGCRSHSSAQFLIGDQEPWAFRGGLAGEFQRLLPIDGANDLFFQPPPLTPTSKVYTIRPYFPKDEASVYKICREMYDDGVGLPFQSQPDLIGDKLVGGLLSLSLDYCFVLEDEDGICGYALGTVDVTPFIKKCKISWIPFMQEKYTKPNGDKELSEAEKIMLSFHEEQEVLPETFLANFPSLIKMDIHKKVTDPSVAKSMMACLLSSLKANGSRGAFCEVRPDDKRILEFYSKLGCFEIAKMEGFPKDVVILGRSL
Description: HEK293 cells inducible for P301L mutant human Tau (isoform 2N4R) were established at Janssen. Thiamet-G was used for both plate validation (high control) and as reference compound (reference EC50 assay validation). OGA inhibition is evaluated through the immunocytochemical (ICC) detection of O-GlcNAcylated proteins by the use of a monoclonal antibody (CTD110.6; Cell Signaling, #9875) detecting O-GlcNAcylated residues as previously described (Dorfmueller et al. 2010 Chemistry & biology, 17:1250).
Inhibition of OGA will result in an increase of 0-GlcNAcylated protein levels resulting in an increased signal in the experiment. Cell nuclei are stained with Hoechst to give a cell culture quality control and a rough estimate of immediate compounds toxicity, if any. ICC pictures are imaged with a Perkin Elmer Opera Phenix plate microscope and quantified with the provided software Perkin Elmer Harmony 4.1.
Cells were propagated in DMEM high Glucose (Sigma, #D5796) following standard procedures. 2 days before the cell assay cells are split, counted and seeded in Poly-D-Lysine (PDL) coated 96-wells (Greiner, #655946) plate at a cell density of 12,000 cells per cm^2 (4,000 cells per well) in 100 μl of Assay Medium (Low Glucose medium is used to reduce basal levels of GlcNAcylation) (Park et al. 2014 The Journal of biological chemistry 289:13519). At the day of compound test medium from assay plates was removed and replenished with 90 μl of fresh Assay Medium. 10 μl of compounds at a 10fold final concentration were added to the wells. Plates were centrifuged shortly before incubation in the cell incubator for 6 hours. DMSO concentration was set to 0.2%. Medium is discarded by applying vacuum. For staining of cells medium was removed and cells washed once with 100 μl D-PBS (Sigma, #D8537). From next step onwards unless other stated assay volume was always 50 μl and incubation was performed without agitation and at room temperature. Cells were fixed in 50 μl of a 4% paraformaldehyde (PFA, Alpha aesar, #043368) PBS solution for 15 minutes at room temperature. […] Before analysis samples were washed 2 times manually for 5 minutes in ICC base buffer.
Imaging is performed using Perkin Elmer Phenix Opera using a water 20× objective and recording 9 fields per well. Intensity readout at 488 nm is used as a measure of O-GlcNAcylation level of total proteins in wells. To assess potential toxicity of compounds nuclei were counted using the Hoechst staining. IC50-values are calculated using parametric non-linear regression model fitting. As a maximum inhibition Thiamet G at a 200 uM concentration is present on each plate. In addition, a concentration response of Thiamet G is calculated on each plate.

[1] = target: T2, recombinant human Meningioma Expressed Antigen 5 (MGEA5), also referred to as O-GlcNAcase (OGA) (Homo sapiens, UniProt O60502); experiment: OGA biochemical assay: inhibition of FM-GlcNAc hydrolysis, fluorescence (protocol A 10 nM OGA, 1 h; protocol B 2 nM OGA, 6 h); details: for Emax: read-out: Enzymatic Emax (%); for IC50: read-out: Enzymatic hOGA, pIC50 (converted)
T2 construct: Full length OGA enzyme was purchased at OriGene (cat # TP322411); purchased OriGene TP322411
T2 sequence (O60502 1-916): T1 sequence (O60502 1-916)
Excerpt: The assay is based on the inhibition of the hydrolysis of fluorescein mono-B-D-N-Acetyl-Glucosamine (FM-GlcNAc) (Mariappa et al. 2015, Biochem J 470:255) by the recombinant human Meningioma Expressed Antigen 5 (MGEA5), also referred to as 0-GlcNAcase (OGA). The hydrolysis FM-GlcNAc (Marker Gene technologies, cat # M1485) results in the formation of β-D-N-glucosamineacetate and fluorescein. The fluorescence of the latter can be measured at excitation wavelength 485 nm and emission wavelength 538 nm. An increase in enzyme activity results in an increase in fluorescence signal. Full length OGA enzyme was purchased at OriGene (cat # TP322411). The enzyme was stored in 25 mM Tris.HCl, pH 7.3, 100 mM glycine, 10% glycerol at −20° C. Thiamet G and GlcNAcStatin were tested as reference compounds (Yuzwa et al. 2008 Nature Chemical Biology 4:483; Yuzwa et al. 2012 Nature Chemical Biology 8:393). The assay was performed in 200 mM Citrate/phosphate buffer supplemented with 0.005% Tween-20. 35.6 g Na2HPO4 2 H2O (Sigma, # C0759) were dissolved in 1 L water to obtain a 200 mM solution. 19.2 g citric acid (Merck, #1.06580) was dissolved in 1 L water to obtain a 100 mM solution. pH of the sodiumphosphate solution was adjusted with the citric acid solution to 7.2. The buffer to stop the reaction consists of a 500 mM Carbonate buffer, pH 11.0. 734 mg FM-GlcNAc were dissolved in 5.48 mL DMSO to obtain a 250 mM solution and was stored at −20° C. OGA was used at a 10 nM (protocol A) or 2 nM (protocol B) concentration and FM-GlcNAc at a 100 uM final concentration. Dilutions were prepared in assay buffer.
50 nl of a compound dissolved in DMSO was dispensed on Black Proxiplate™ 384 Plus Assay plates (Perkin Elmer, #6008269) and 3 μl fl-OGA enzyme mix added subsequently. Plates were pre-incubated for 60 min at room temperature and then 2 μl FM-GlcNAc substrate mix added. […] Plates were briefly centrifuged for 1 min at 1000 rpm and incubate at room temperature for 1 h (10 nM OGA, protocol A) or 6 h (2 nM OGA, protocol B). To stop the reaction 5 μl STOP buffer were added and plates centrifuge again 1 min at 1000 rpm. Fluorescence was quantified in the Thermo Scientific Fluoroskan Ascent or the PerkinElmer EnVision with excitation wavelength 485 nm and emission wavelength 538 nm.
For analysis a best-fit curve is fitted by a minimum sum of squares method. From this an IC50 value and Hill coefficient was obtained. High control (no inhibitor) and low control (saturating concentrations of standard inhibitor) were used to define the minimum and maximum values.

PDE2 = PDE2 (Homo sapiens, UniProt O00408); experiment: PDE2 inhibitory activity (protocol as described in WO2017/076900, page 28); assay type: biochemical; details: screening concentration of 10 μM; read-out: PDE2 inhibitory activity, % effect
[2] = Enzymatic protocol B (2 nM OGA, 6 h)
[3] = Enzymatic protocol A (10 nM OGA, 1 h)

Sequence of PDE2 (O00408 whole entry): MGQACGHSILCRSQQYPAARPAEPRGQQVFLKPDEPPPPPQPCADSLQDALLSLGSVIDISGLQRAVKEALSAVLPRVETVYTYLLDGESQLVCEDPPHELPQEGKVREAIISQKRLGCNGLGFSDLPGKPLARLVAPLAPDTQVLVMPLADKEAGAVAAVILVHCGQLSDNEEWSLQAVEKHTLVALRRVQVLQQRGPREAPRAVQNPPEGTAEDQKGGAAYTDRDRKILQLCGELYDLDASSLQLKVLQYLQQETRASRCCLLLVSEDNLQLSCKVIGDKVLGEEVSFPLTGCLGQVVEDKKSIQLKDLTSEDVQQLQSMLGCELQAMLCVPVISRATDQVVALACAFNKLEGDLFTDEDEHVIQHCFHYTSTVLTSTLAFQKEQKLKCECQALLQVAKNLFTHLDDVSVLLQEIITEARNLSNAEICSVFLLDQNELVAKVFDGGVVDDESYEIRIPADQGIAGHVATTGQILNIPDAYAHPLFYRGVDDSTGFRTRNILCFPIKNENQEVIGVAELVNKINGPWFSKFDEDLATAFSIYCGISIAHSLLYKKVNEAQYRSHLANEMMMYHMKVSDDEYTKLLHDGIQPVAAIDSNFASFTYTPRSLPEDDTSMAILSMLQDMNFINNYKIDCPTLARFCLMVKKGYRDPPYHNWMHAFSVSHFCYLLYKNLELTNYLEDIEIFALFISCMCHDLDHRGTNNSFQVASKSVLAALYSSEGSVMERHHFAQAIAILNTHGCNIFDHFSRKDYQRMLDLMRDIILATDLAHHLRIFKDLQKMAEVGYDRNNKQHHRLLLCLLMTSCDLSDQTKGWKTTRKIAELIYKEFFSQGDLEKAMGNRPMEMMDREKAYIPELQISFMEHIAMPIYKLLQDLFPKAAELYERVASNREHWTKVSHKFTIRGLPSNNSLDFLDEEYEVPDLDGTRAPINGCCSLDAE

| Structure (SMILES) | melting point [°C] | Emax (OGA) [%] | EC50 (OGA) [nM] | Emax [1, 2] [%] | IC50 [1, 2] [nM] | Emax [1, 3] [%] | IC50 [1, 3] [nM] | inhibition at 10 µM (PDE2) [%] | Enzymatic Emax (%) [1, 3] [%] |
| --- | --- | --- | --- | --- | --- | --- | --- | --- | --- |
| CC(=O)Nc1ncc(S(=O)(=O)N2CCCC(c3cc4ncccc4[nH]3)C2)s1 (stereo not shown) [Compound 2] |  |  |  |  |  | 102 | 263 | 33.1 |  |
| CC(=O)Nc1ncc(CN2CCCC(c3nc4ncccc4[nH]3)C2)s1 (single isomer, unassigned) [Compound 18] | 223.94 |  |  |  |  |  | 24500 |  | 55.6 |
| CCC(=O)Nc1ncc(CN2CCCC(c3cc4ncccc4[nH]3)C2)s1 (stereo not shown) [Compound 9] | 235 |  |  |  |  | 98 | 204 |  |  |

Now from value to molecule:

| melting point [°C] | Emax (OGA) [%] | EC50 (OGA) [nM] | Emax [1, 2] [%] | IC50 [1, 2] [nM] | Emax [1, 3] [%] | IC50 [1, 3] [nM] | inhibition at 10 µM (PDE2) [%] | Enzymatic Emax (%) [1, 3] [%] | Structure (SMILES) |
| --- | --- | --- | --- | --- | --- | --- | --- | --- | --- |
| 179.9 | 7.2 | > 10000 | 80.5 | 2630 |  |  |  |  | O=C(CN1CCCC(c2cc3ncccc3[nH]2)C1)N1CCCC1 (stereo not shown) [Compound 49] |
| 187.16 |  |  | 102 | 2.69 |  |  |  |  | CC(=O)Nc1ncc(CN2CC[C@@H](Cc3cc4ncccc4n3C)C2)s1 [Compound 58] |
| 228.2 | 109 | 851 |  |  |  | 148 |  | 102 | CC(=O)Nc1ncc(CN2CCCC(c3nc4ncccc4[nH]3)C2)s1 (single isomer, unassigned) [Compound 19] |
